Test results published in US20210139484A1, “DIHYDROISOQUINOLINE-2(1H)-CARBOXAMIDE AND RELATED COMPOUNDS AND THEIR USE IN TREATING MEDICAL CONDITIONS” (GOSSAMER BIO SERVICES, INC., priority 2018, published 2021).

These molecules were tested against T1, human HPK1 protein (Homo sapiens, UniProt Q92918) (assay: Human HPK1 protein TR-FRET assay). Conditions: 1 mM ATP, Table 19.
T1 construct: recombinant human HPK1 protein (a.a. 1-346) was expressed in Sf9 insect cells; GST (N); purchased Signalchem M23-11G; host or cells: Sf9 insect cells (baculovirus)
T1 sequence (Q92918 1-346): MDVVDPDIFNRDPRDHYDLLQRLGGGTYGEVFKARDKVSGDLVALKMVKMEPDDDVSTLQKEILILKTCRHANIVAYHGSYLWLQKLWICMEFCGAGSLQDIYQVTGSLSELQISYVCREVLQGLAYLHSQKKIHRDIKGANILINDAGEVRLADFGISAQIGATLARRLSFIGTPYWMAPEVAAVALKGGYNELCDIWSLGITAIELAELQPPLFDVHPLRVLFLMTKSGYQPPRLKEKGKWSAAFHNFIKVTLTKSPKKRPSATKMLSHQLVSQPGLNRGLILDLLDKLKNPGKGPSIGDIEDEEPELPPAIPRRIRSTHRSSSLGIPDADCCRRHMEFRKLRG
Assay type: biochemical
Method in brief: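 Read-out was TR-FRET using Eu-labeled anti-phospho-CREB (Ser133) antibody, with the 665/615 nm signal ratio normalised to DMSO-only wells and fitted by a 4-parameter logistic model for IC50. Reactions held 10 nM Sf9-expressed GST-HPK1 (a.a. 1-346), 100 nM CREBtide and 1 mM ATP, run 60 minutes at room temperature, pH 7.5.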

Row | IC50 [µM] | Structure (SMILES)
1 | < 0.5 | CCN1CCN(Cc2ccc(NC(=O)N3CCc4ncc(Oc5ccnc6[nH]c(C)cc56)cc4C3C)cc2C(F)(F)F)CC1 (single isomer, unassigned) [VIII-2]
2 | < 0.5 | CCN1CCN(Cc2ccc(NC(=O)N3Cc4cc(Oc5ccnc6[nH]c(C)cc56)cnc4C(C)C3)cc2C(F)(F)F)CC1 (stereo not shown) [VII-3]
3 | < 0.5 | CCN1CCN(Cc2ccc(NC(=O)N3CCc4ccc(Oc5cc(NC)ncn5)cc4C3)cc2C(F)(F)F)CC1 [II-1]
4 | < 0.5 | C[C@H]1c2cc(Oc3ccnc4[nH]ccc34)ccc2CCN1C(=O)Nc1ccc(CN2CCN(C)CC2)c(C(F)(F)F)c1 [V-2]
5 | < 0.5 | CCN1CCN(Cc2ccc(NC(=O)N3Cc4cc(Oc5ccnc6[nH]c(C)cc56)c(F)cc4C(C)C3)cc2C(F)(F)F)CC1 (stereo not shown) [IV-27]
6 | < 0.5 | CCN1CCN(Cc2ccc(NC(=O)N3CCc4cc(F)c(Oc5ccnn6cccc56)cc4C3C)cc2C(F)(F)F)CC1 (stereo not shown) [IV-31]
7 | 0.5 to 5 | CCN1CCN(Cc2ccc(NC(=O)N3CCc4cc(F)c(Oc5ccnc6[nH]ccc56)cc4C3C)cc2C(F)(F)F)CC1 (stereo not shown) [IV-7]
8 | < 0.5 | C[C@H]1c2cc(Oc3ccnc4[nH]ccc34)ccc2CCN1C(=O)Nc1cc(C(F)(F)F)c(OC2CCN(C)CC2)cn1 [IV-9]
9 | < 0.5 | CCN1CCN(Cc2ccc(NC(=O)N3Cc4cc(Oc5ccnc6[nH]c(C)cc56)c(F)cc4C(C)C3)cc2C(F)(F)F)CC1 (stereo not shown) [IV-29]
10 | < 0.5 | CCN1CCN(Cc2ccc(NC(=O)N3CCc4ccc(Oc5ccnn6cc(Br)cc56)cc4C3)cc2C(F)(F)F)CC1 [II-24]
11 | < 0.5 | Cc1cc2c(Oc3cnc4c(c3)CN(C(=O)Nc3cnc(OC5CCN(C)CC5O)c(C(F)(F)F)c3)CC4C)ccnc2[nH]1 (stereo not shown) [VII-19]
12 | < 0.5 | CCc1cc2c(Oc3ccc4c(c3)[C@H](C)N(C(=O)Nc3ccc(CN5CCN(CC)CC5)c(C(F)(F)F)c3)CC4)ccnc2[nH]1 [V-22]
13 | < 0.5 | CCC1CN(C(=O)Nc2ccc(CN3CCN(CC)CC3)c(C(F)(F)F)c2)Cc2cc(Oc3ccnc4[nH]ccc34)ccc21 (stereo not shown) [IV-20]
14 | < 0.5 | CCN1CCN(Cc2ccc(NC(=O)N3CCc4ccc(Oc5cc(NC(=O)C6CC6)ncn5)cc4C3)cc2C(F)(F)F)CC1 [II-10]
15 | > 10 | CCN1CCN(Cc2ccc(NC(=O)N3CCc4cc(F)c(Oc5ncnn6cccc56)cc4C3C)cc2C(F)(F)F)CC1 (stereo not shown) [IV-34]
16 | < 0.5 | CCN1CCN(Cc2ccc(NC(=O)N3Cc4cc(Oc5ccnc6[nH]c(C)cc56)cnc4C(C)C3)cc2C(F)(F)F)CC1 (single isomer, unassigned) [VII-21]

Row | IC50 [µM] | Structure (SMILES)
17 | < 0.5 | CCN1CCN(Cc2ccc(NC(=O)N3CCc4ccc(Oc5ccnc6c5CCN6)cc4C3)cc2C(F)(F)F)CC1 [III-5]
18 | < 0.5 | CCN1CCN(Cc2ccc(NC(=O)N3CCc4ccc(Oc5ccnc6[nH]ncc56)cc4C3)cc2C(F)(F)F)CC1 [II-4]
19 | < 0.5 | Cc1cc2c(Oc3cnc4c(c3)CN(C(=O)Nc3cnc(OC5CCN(C)CC5)c(C(F)(F)F)c3)CC4C)ccnc2[nH]1 (single isomer, unassigned) [VII-7]
20 | 0.5 to 5 | CCN1CCN(Cc2ccc(NC(=O)N3CCc4cc(Oc5ccnc6[nH]ccc56)ccc4C3)cc2C(F)(F)F)CC1 [X-1]
21 | < 0.5 | Cc1cc2c(Oc3cnc4c(c3)CN(C(=O)Nc3cnc(OC5CCN(C)CC5)c(C(F)(F)F)c3)CC4C)ncnc2[nH]1 (stereo not shown) [VII-13]
22 | < 0.5 | CCN1CCN(Cc2ccc(NC(=O)N3Cc4cc(Oc5ccnc6[nH]c(C)cc56)ccc4C(C(C)C)C3)cc2C(F)(F)F)CC1 (stereo not shown) [IV-36]
23 | < 0.5 | Cc1cc2c(Oc3cnc4c(c3)CN(C(=O)Nc3cnc(OC5CCN(C)CC5)c(C(F)(F)F)c3)CC4C)ncnc2[nH]1 (stereo not shown) [VII-12]
24 | < 0.5 | CCN1CCN(Cc2ccc(NC(=O)N3CCc4cc(Br)c(Oc5ccnc6[nH]ccc56)cc4C3C)cc2C(F)(F)F)CC1 (stereo not shown) [IV-13]
25 | < 0.5 | CCN1CCN(Cc2ccc(NC(=O)N3CCc4ccc(Oc5ccnc6[nH]c(CCO)cc56)cc4[C@@H]3C)cc2C(F)(F)F)CC1 [V-24]
26 | 0.5 to 5 | CCN1CCN(Cc2ccc(NC(=O)N3CCc4ccc(Oc5c(C)cnc6[nH]ccc56)cc4C3)cc2C(F)(F)F)CC1 [III-6]
27 | < 0.5 | CCN1CCN(Cc2ccc(NC(=O)N3CCc4ccc(Oc5ccnn6cc(-c7cnn(C)c7)cc56)cc4C3)cc2C(F)(F)F)CC1 [II-26]
28 | < 0.5 | CCN1CCN(Cc2ccc(NC(=O)N3Cc4cc(Oc5ccnc6[nH]c(C)cc56)c(F)cc4C(C)C3)cc2C(F)(F)F)CC1 (stereo not shown) [IV-28]
29 | 0.5 to 5 | Cc1cc2c(Oc3ccc4c(c3)[C@H](C)N(C(=O)Nc3cnc(OC5CCN(C)CC5C)c(C(F)(F)F)c3)CC4)ccnc2[nH]1 (stereo in doubt) [VI-4]
30 | < 0.5 | Cc1cc2c(Oc3cnc4c(c3)CN(C(=O)Nc3cnc(OC5CCN(C)CC5)c(C(F)(F)F)c3)CC4C)ccnc2[nH]1 (stereo not shown) [VII-6]
31 | < 0.5 | CCN1CCN(Cc2ccc(NC(=O)N3CCc4c(F)cc(Oc5ccnc6[nH]ccc56)cc4C3C)cc2C(F)(F)F)CC1 (stereo not shown) [IV-15]

Same assay, conditions: 1 mM ATP, Table 20

Row | Structure (SMILES) | IC50 [µM]
32 | CCN1CCN(Cc2ccc(NC(=O)N3Cc4cc(Oc5ccnc6[nH]ccc56)cnc4[C@H](C)C3)cc2C(F)(F)F)CC1 [XI-11] | < 0.5
33 | Cc1cc2c(Oc3cnc4c(c3)CN(C(=O)Nc3ccc(CN5CC6CCC(C5)N6)c(C(F)(F)F)c3)C[C@H]4C)ccnc2[nH]1 [XIV-101] | 0.5 to 5
34 | C[C@H]1CN(C(=O)Nc2ccc(CN3CCN(C)CC3)c(C(F)(F)F)c2)Cc2cc(Oc3ccnc4[nH]c(C#N)cc34)ccc21 [XV-34] | < 0.5
35 | CCN1CCN(Cc2ccc(NC(=O)N3Cc4cc(Oc5ccnc6[nH]c(C)cc56)c(C)nc4C(C)C3)cc2C(F)(F)F)CC1 (stereo not shown) [XVIII-2] | < 0.5
36 | O=C(Nc1ccc(CN2CCNCC2)c(C(F)(F)F)c1)N1CCc2ccc(Oc3ccnc4[nH]c(C5(O)CC5)cc34)cc2C1 [XVIII-9] | < 0.5
37 | CC[C@@H]1CN(C(=O)Nc2ccc(CN3CCN(CCO)CC3)c(C(F)F)c2)Cc2cc(Oc3ccnc4[nH]c(CO)cc34)ccc21 [XV-7] | < 0.5
38 | CN1CCN(Cc2ccc(NC(=O)N3CCc4ccc(Oc5ccnc6[nH]c(C7(O)CC7)cc56)cc4C3)cc2C(F)(F)F)CC1 [XVIII-10] | < 0.5
39 | CC[C@@H]1Cc2ncc(Oc3ccnc4[nH]ccc34)cc2CN1C(=O)Nc1ccc(CN2CCN(CC)CC2)c(C(F)(F)F)c1 [XVIII-17] | < 0.5
40 | CN1CCN(Cc2ccc(NC(=O)N3CCc4ccc(Oc5c(F)cnc6[nH]c(C(=O)N(C)C)cc56)cc4C3)cc2C(F)(F)F)CC1 [XVIII-4] | < 0.5
41 | CC[C@@H]1CN(C(=O)Nc2ccc(CN3CCNCC3)c(C(F)(F)F)c2)Cc2cc(Oc3ccnc4[nH]c(C#N)cc34)ccc21 [XV-16] | < 0.5
42 | CC[C@H]1CN(C(=O)Nc2ccc(CN3CCNCC3)c(C(F)(F)F)c2)Cc2cc(Oc3ccnc4[nH]c(CO)cc34)ccc21 [XV-5] | < 0.5

Now from value to molecule:

Row | IC50 [µM] | Structure (SMILES)
43 | < 0.5 | CN1CCN(Cc2ncc(NC(=O)N3CCc4cc(F)c(Nc5c(F)cnc6[nH]c(-c7cnn(C)c7)cc56)cc4C3)cc2C(F)(F)F)CC1 [XVII-4]
44 | < 0.5 | CCN1CCN(Cc2ccc(NC(=O)N3CCc4ccc(Oc5cc(NC(=O)C6CC6)ncc5F)cc4[C@@H]3C)cc2C(F)(F)F)CC1 [XIII-15]
45 | < 0.5 | CCN1CCN(Cc2ccc(NC(=O)N3CCc4ccc(Oc5cc(NC(=O)c6cnn(C)c6)ncc5F)cc4[C@@H]3C)cc2C(F)(F)F)CC1 [XIII-17]
46 | 5 to 10 | CCC1CN(C(=O)Nc2ccc(CN3CCN(CC)CC3)c(C(F)(F)F)c2)Cc2cc(Oc3ccnc4[nH]c(C(C)OC)cc34)cnc21 (stereo not shown) [XIV-41]
47 | > 10 | CCN1CCN(Cc2ccc(NC(=O)N3Cc4cc(Oc5ccnc6[nH]nnc56)cnc4C(C)C3)cc2C(F)(F)F)CC1 (single isomer, unassigned) [XIV-17]
48 | < 0.5 | CC[C@H]1CN(C(=O)Nc2ccc(CN3CCN(C)CC3)c(C(F)(F)F)c2)Cc2cc(Oc3ccnc4[nH]c(C(=O)NCCCO)cc34)cnc21 [XIV-108]
49 | 0.5 to 5 | CC[C@H]1CN(C(=O)Nc2ccc(CN3CCN(CC(F)F)CC3)c(C(F)(F)F)c2)Cc2cc(Oc3ccnc4[nH]c(C(=O)N(C)C)cc34)cnc21 [XIV-139]
50 | < 0.5 | CC[C@H]1CN(C(=O)Nc2ccc(CN3CCN(CC)CC3)c(C(F)(F)F)c2)Cc2cc(Oc3ccnc4[nH]c(C#N)cc34)cnc21 [XIV-20]
51 | < 0.5 | CCN1CCN(Cc2ccc(NC(=O)N3Cc4cc(Oc5ccnc6c5CCC(=O)N6)cnc4C(C)C3)cc2C(F)(F)F)CC1 (single isomer, unassigned) [XIV-1]
52 | < 0.5 | Cc1cc2c(Oc3cnc4c(c3)CN(C(=O)Nc3ccc(CN5CCN(C)CC5)c(C(F)(F)F)c3)C[C@H]4C)ccnc2[nH]1 [XIV-91]
53 | < 0.5 | C[C@@H]1Cc2ccc(Oc3ccnc4[nH]c(C(=O)N(C)C)cc34)cc2CN1C(=O)Nc1ccc(CN2CCN(C)CC2)c(C(F)(F)F)c1 [XVI-1]
54 | < 0.5 | C[C@H]1CN(C(=O)Nc2ccc(CN3CCN(C)CC3)c(C(F)(F)F)c2)Cc2cc(Oc3ccnc4[nH]c(C5CC5)cc34)cnc21 [XIV-81]
55 | < 0.5 | C[C@@H]1Cc2ccc(Oc3c(F)cnc4[nH]c(-c5cnn(C)c5)cc34)cc2CN1C(=O)Nc1ccc(CN2CCN(C)CC2)c(C(F)(F)F)c1 [XVI-4]
56 | < 0.5 | C[C@H]1CN(C(=O)Nc2ccc(CN3CCN(C)CC3)c(C(F)(F)F)c2)Cc2cc(Oc3ccnc4[nH]c(C(N)=O)cc34)cnc21 [XIV-86]
57 | < 0.5 | CC[C@H]1CN(C(=O)Nc2ccc(CN3CCN(C)CC3)c(C(F)(F)F)c2)Cc2cc(Oc3ccnc4[nH]c(CO)cc34)cnc21 [XIV-46]
58 | < 0.5 | CN1CCN(Cc2ccc(NC(=O)N3CCc4ccc(Oc5c(F)cnc6[nH]c(-c7cn[nH]c7)cc56)cc4C3)cc2C(F)(F)F)CC1 [XII-9]
